Laboratory results: patent publication EP3572468B1, “CYANINE DYES AND THEIR USAGE FOR IN VIVO STAINING OF MICROORGANISMS” (PHILIPPS-UNIVERSITÄT MARBURG, priority 2018, dated 2019)
Where “and” joins values, the source holds several entries; their conditions need not be identical. Equal values may be shown once.

Assays:
[1] = biological target: dsDNAhAT (double-stranded DNA hairpin with the consensus sequence ATTA); assay: Fluorescence titration with hairpin dsDNAhAT, binding affinity by DynaFit; settings: 1 µM dye in 10 mM Tris pH 7.6 and 50 mM KCI, 20°C, emission at 647 nm, 1:1 binding model, read-out: binding affinity (KD, apparent dissociation constant)
Description: Fluorescence measurements and tritations were performed on a Jasco FP-6500 spectrofluorometer equipped with a Thermo Haake WKL 26 water recirculator at 20°C. Unless otherwise noted, a 1400 µL fluorescence cuvette of HellmaAnalytics (104F-QS) was used and the measurements were performed with the following settings: increment: 1.0 nm; integration time: 0.2 s; speed: 500 nm/min; sensitivity: medium; excitation slit width: 3 nm; emission slit width: 3 nm; excitation wavelength 610 nm. The emission spectra were recorded from 625 to 750 nm at 20°C. From all spectra, the corresponding background signal was substracted. […] Table 1: Binding sites and sequences of DNA hairpins, which were used for fluorescence titrations experiments.
All fluorescence titrations followed the same procedure: to 1 mL of 1 µM solution of corresponding cyanine dye derivative in 10 mM Tris pH 7.6 and 50 mM KCI aliquots of a stock solution of the corresponding annealed DNA (dsDNAhAT and dsDNAhGC = 435 µM; dsDNACT = 0.65 mM) were successively added and the fluorescence spectra were recorded in a range from 625-750 nm after 1 min of each addition. […] The fluorescence emission plotted is the resulting mean of the three independent measurements. […]
All binding affinities were determined by fitting the obtained experimental data in the DynaFit 4.0 software. […]

[2] = Fluorescence quantum yield, dye alone; assay type: physicochemical; settings: dye alone, without dsDNACT; 10 mM Tris pH 7.6 and 50 mM KCI, 25°C; reference dye Alexa Fluor 647
Description: Fluorescence intensity values for the quantum yields were determined on an ISS PC1 spectrofluorometer with an ISS 11650 lamp connected to an ISS Simpson model 109 and an ISS 80011 photomulitplier connected to a MGW Lauda K2R D and an Amherst Scientific Corp. 7600F for cooling. A VWR Refrigerated Circ 1160S was connected for the cooling of the cuvette chamber. It was measured in a 1400 µL fluorescence cuvette of HellmaAnalytics (104F-QS) at 25°C using the following settings: increment: 2.0 nm; integration time: 1.0 s; excitation slit width: 0.25 mm; emission slit width: 0.5 mm; excitation wavelength 590 nm. The emission spectra were recorded from 610 to 750 nm. From all spectra the corresponding background signal was substracted. Absorbance values were measured on a Jasco V-650 UV-Vis Spectrophotometer equipped with a Jasco PAC-743 temperature controlled cell holder and a Julabo F250 cooling system. UV-Vis titration measurements were performed in a 1400 µL quarz cuvette with a pathlength of 1 cm at 25°C using the following settings: increment: 1.0 nm; bandwidth: 1.0 nm; scanning speed: 1000 nm/min; scanning mode: continuous. From all values, the corresponding background signal was subtracted. The values for the reference compounds were measured in duplicates, the ones for 6-TramTO-3 with and without dsDNACT in triplicates. The quantum yields of 6-TramTO-3 with (30 eq.) and without dsDNACT were determined in 10 mM Tris pH 7.6 and 50 mM KCI. All measurement were following the procedure of Horiba and using the equation E1: ΦX = ΦST ((GradX)/(GradST)) ((((ηX))^2)/(((ηST))^2)) [formula] where Φ = fluorescence quantum yield, η = refractive index of the used solvent, Grad = gradient from the plot of integrated fluorescence intensity vs. absorbance and the subscripts ST and X denote standard and tested sample. […]
Table 3: Determined slopes and corresponding quantum yields for the two reference compounds Alexa Flour® 647 and Atto 655 and for 6-TramTO-3 with and without dsDNACT.

[3] = Molar extinction coefficient determination; assay type: physicochemical; settings: in milli-Q water; absorbance maximum at 625 nm
Description: The concentration determination and measurement of full UV-Vis spectra were performed on a Tecan 20M at room temperature. The measurements were performed in a 1400 µL quarz cuvette with a pathlength of 1 cm in a volume of 1 mL.
For the accurate determination of our compounds 6-TramTO-3 the extinction coefficient was calculated. A specific amount (< 2.00 mg) of the compound was weighted on a Mettler Toledo XP6 and dissolved in a known amount of milli-Q water. Increasing amounts of such stock solution were added into a 1 mL cuvette filled with 1 ml of milli-Q water. The corresponding absorbance of each addition was measured on a Tecan Spark 20M at the maximum at 625 nm and without exceeding 10% of the initial volume. In all the cases the absorbance was between 0.1 and 1 AU. to be in concordance with Lambert-Beer law (equation E2). A = ε l c [formula]
In this equation (E2): A = absorbance of the solution; I = length of the cuvette; c = concentration; ε = molar extinction coefficient.
The lineal regression of the obtained absorbance measurements versus the concentrations of 6-TramTO-3 allowed us to obtain the molar extinction coefficient. These measurements were repeated three times independently i.e. from three different stock solutions. The mean extinction coefficient and the standard deviation of 6-TramTO-3 at a wavelength of 625 nm in milli-Q water was 59403 ±646 M^-1cm^-1.
The mean extinction coefficient and the standard deviation of 6-NH2TO-3 and 6-AzTO-3 were determined following the above described procedure. The extinction coefficient of 6-NH2TO-3 was determined in milli-Q water, whereas the extinction coefficient of 6-AzTO-3 was determined in DMSO due to its low aqueous solubility. […] For the spectrum of 6-AzTO-3 1% of DMSO was added for a better solubility. Fig. 20 and Fig. 21 show the linear regressions from the three independent measurements. Table 4 summarized the molar extinction coefficient obtained. Table 4: Determined mean extinction coefficients and standard deviations of 6-AzTO-3 in DMSO and 6-TramTO-3 and 6-NH2TO-3 in milli-Q water.

## CC[n+]1ccc(/C=C/C=C2\Sc3ccccc3N2CCCCCCn2cc(CN)nn2)c2ccccc21.[I-] [6-TramTO-3, 4-((1E,3Z)-3-(3-(6-(4-(aminomethyl)-1H-1,2,3-triazol-1-yl)hexyl)benzo[d]thiazol-2(3H)-ylidene)prop-1-en-1-yl)-1-ethylquinolin-1-ium iodide]
[1]
  Kd: 114 ± 30 nM
[2]
  quantum yield (ΦF): 0.005 and 0.0052
[3]
  mean extinction coefficient: 59403 ± 646 M⁻¹ cm⁻¹
